Measurements from PubChem BioAssay AID1845212 (Molecular Pharmacology Branch, DTP, NCI, 2023).

Tested on: NCI-H719 tumor spheroids, viability
Assay: Anticancer human tumor NCI-H719 cell line growth inhibition;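 further: spheroids exposed to compounds for seven days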;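 on viability, T/C: percent viability relative to DMSO vehicle control as 100%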
Conditions: spheroids with HUVEC and MSC; for IC50: curve of first compound; for viability, T/C: stronger effect = lower value; active means viability on the fitted dose curve at most 10% of control; inactive means the rest
Outline: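 Complex spheroids of malignant cells with endothelial cells and mesenchymal stem cells; agents alone or combined, from near clinical Cmax (or 10 microM if unknown) down in half-log steps, 0.25% DMSO final.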

[1] = second compound 0.003 µM, first compound 0.0316 µM
[2] = second compound 0.003 µM, first compound 0.1 µM
[3] = second compound 0.003 µM, first compound 0.316 µM
[4] = second compound 0.003 µM, first compound 1 µM
[5] = second compound 0.003 µM, first compound 3.16 µM
[6] = second compound 0.003 µM, first compound 10 µM

Cc1cc(C)c(CNC(=O)c2cc(-c3ccc(CN4CCOCC4)cc3)cc3c2cnn3C2CCCC2)c(=O)[nH]1 + COc1cc2c(cc1O)CCNC21CSC2c3c(OC(C)=O)c(C)c4c(c3C(COC1=O)N1C(O)C3Cc5cc(C)c(OC)c(O)c5C(C21)N3C)OCO4
inactive: viability, T/C (second compound 30 pM, first compound 0.0316 µM) 90.3% | viability, T/C (second compound 30 pM, first compound 0.1 µM) 100% | viability, T/C (second compound 30 pM, first compound 0.316 µM) 92.1% | viability, T/C (second compound 30 pM, first compound 1 µM) 78.7% | viability, T/C (second compound 30 pM, first compound 3.16 µM) 83.1% | viability, T/C (second compound 30 pM, first compound 10 µM) 56.2% | viability, T/C (second compound 94.9 pM, first compound 0.0316 µM) 24% | viability, T/C (second compound 94.9 pM, first compound 0.1 µM) 26.2% | viability, T/C (second compound 94.9 pM, first compound 0.316 µM) 37.6% | viability, T/C (second compound 94.9 pM, first compound 1 µM) 25.5% | viability, T/C (second compound 94.9 pM, first compound 3.16 µM) 40.4% | viability, T/C (second compound 94.9 pM, first compound 10 µM) 32.2%
> 10000 nM: IC50 (second compound 30 pM)
< 31.6 nM: IC50 (second compound 94.9 pM) | IC50 (second compound 0.0003 µM) | IC50 (second compound 0.000949 µM) | IC50 (second compound 0.003 µM)
active: viability, T/C (second compound 0.0003 µM, first compound 0.0316 µM) 6.57% | viability, T/C (second compound 0.0003 µM, first compound 0.1 µM) 8.67% | viability, T/C (second compound 0.0003 µM, first compound 0.316 µM) 7.48% | viability, T/C (second compound 0.0003 µM, first compound 1 µM) 8.65% | viability, T/C (second compound 0.0003 µM, first compound 3.16 µM) 11.9% | viability, T/C (second compound 0.0003 µM, first compound 10 µM) 6.02% | viability, T/C (second compound 0.000949 µM, first compound 0.0316 µM) 6.46% | viability, T/C (second compound 0.000949 µM, first compound 0.1 µM) 7.33% | viability, T/C (second compound 0.000949 µM, first compound 0.316 µM) 6.11% | viability, T/C (second compound 0.000949 µM, first compound 1 µM) 6.61% | viability, T/C (second compound 0.000949 µM, first compound 3.16 µM) 7.09% | viability, T/C (second compound 0.000949 µM, first compound 10 µM) 4.83% | viability, T/C [1] 0.34% | viability, T/C [2] 0.8% | viability, T/C [3] 0.7% | viability, T/C [4] 1.08% | viability, T/C [5] 0.44% | viability, T/C [6] 0.8%

Cc1cc(C)c(CNC(=O)c2cc(-c3ccc(CN4CCOCC4)cc3)cc3c2cnn3C2CCCC2)c(=O)[nH]1 + CC[C@@]1(O)C(=O)OCc2c1cc1n(c2=O)Cc2cc3c(CN(C)C)c(O)ccc3nc2-1
< 31.6 nM: IC50 (second compound 0.00949 µM) | IC50 (second compound 0.03 µM) | IC50 (second compound 0.0949 µM) | IC50 (second compound 0.3 µM)
inactive: viability, T/C [1] 52.6% | viability, T/C [2] 52.9% | viability, T/C [3] 54.8% | viability, T/C [4] 51.6% | viability, T/C [5] 49.1% | viability, T/C [6] 39.2%
2260 nM: IC50 (second compound 0.003 µM)
active: viability, T/C (second compound 0.00949 µM, first compound 0.0316 µM) 6.76% | viability, T/C (second compound 0.00949 µM, first compound 0.1 µM) 6.82% | viability, T/C (second compound 0.00949 µM, first compound 0.316 µM) 6.88% | viability, T/C (second compound 0.00949 µM, first compound 1 µM) 6.69% | viability, T/C (second compound 0.00949 µM, first compound 3.16 µM) 6.81% | viability, T/C (second compound 0.00949 µM, first compound 10 µM) 5.13% | viability, T/C (second compound 0.03 µM, first compound 0.0316 µM) 6.03% | viability, T/C (second compound 0.03 µM, first compound 0.1 µM) 5.75% | viability, T/C (second compound 0.03 µM, first compound 0.316 µM) 6.33% | viability, T/C (second compound 0.03 µM, first compound 1 µM) 5.99% | viability, T/C (second compound 0.03 µM, first compound 3.16 µM) 6.45% | viability, T/C (second compound 0.03 µM, first compound 10 µM) 16.3% | viability, T/C (second compound 0.0949 µM, first compound 0.0316 µM) 5.7% | viability, T/C (second compound 0.0949 µM, first compound 0.1 µM) 5.83% | viability, T/C (second compound 0.0949 µM, first compound 0.316 µM) 5.84% | viability, T/C (second compound 0.0949 µM, first compound 1 µM) 6.02% | viability, T/C (second compound 0.0949 µM, first compound 3.16 µM) 6.69% | viability, T/C (second compound 0.0949 µM, first compound 10 µM) 6.41% | viability, T/C (second compound 0.3 µM, first compound 0.0316 µM) 5.68% | viability, T/C (second compound 0.3 µM, first compound 0.1 µM) 6.37% | viability, T/C (second compound 0.3 µM, first compound 0.316 µM) 6.67% | viability, T/C (second compound 0.3 µM, first compound 1 µM) 6.18% | viability, T/C (second compound 0.3 µM, first compound 3.16 µM) 6.37% | viability, T/C (second compound 0.3 µM, first compound 10 µM) 6.13%
